“Also recorded” adds a separate entry of the source.

The nature of data set [1]: Effect of 17-AAG starting polymorph on formulation properties. The class given is physicochemical. Conditions: non-sterile formulation made by procedure of Example 7 from the named polymorph. The method, then:
Particle size distribution was determined by dynamic light scattering with a Nanotract 250 particle size analyzer (Microtrac Inc., Montgomeryville, Pa.). The Nanotrac 250 settings were configured for measuring the PSD (volume distribution) of “Irregular” Shaped particles of “Absorbing” Transparency in a fluid with characteristics of water (Refractive Index: 1.333, Viscosity at 20° C.: […], Viscosity at 30° C.: 1.002 cP). A background signal was measured using 5% Dextrose for Injection (D5W). Then, the nanoparticle formulation was diluted 10 to 20-fold into D5W and mixed well. The PSD of the diluted sample was measured as the average of five replicate 5-minute analyses and reported in histogram format as a function of particle size. While the PSD reflects the range and frequency of particle sizes, other characteristics of the PSD were used for quantitation. The D50 is the volume percentile corresponding to the particle size larger than 50% of the total particle volume (i.e. the median particle size). The D90 is the volume percentile corresponding to the particle size larger than 90% of the total particle volume and is a measure of the largest particles in the dispersion. The particle size distribution measured by dynamic light scattering techniques was supplemented with SEM images, acquired by techniques established in the art. The particle sizes determined via the SEM images were in general agreement with those determined by light scattering.
17-AAG (purified Polymorph C, 1.25 g) was mixed with WFI (3.62 g) and a solution of polysorbate 80 (2.5 g of a 10 weight % solution in WFI), an aqueous suspension of soybean phosphatidylcholine (0.63 g of a 10 weight % suspension in WFI), and a solution of sucrose (10 g of a 25 weight % solution in WFI). The mixture was loaded into the reservoir of a Microfluidics Model 110S microfluidizer containing 7 g WFI set up as described in the previous example and processed under the same conditions. This procedure yielded a formulation having a 17-AAG concentration of approximately 50 mg/mL in an aqueous medium having approximately 1.0 weight % polysorbate 80, 0.25 weight % soy phosphatidylcholine, and 10 weight % sucrose, with a 17-AAG particle size distribution of below 1 micron with median particle size of 300 nm volume distribution.
Non-sterile formulations of 17-AAG were made with other polymorphs using the procedure of Example 7 and compared against formulations made with purified Polymorph C.

A short description of data set [2]: Polymorph stability to heat and humidity (VT-XRPD, DSC). The class given is physicochemical. Conditions: for polymorph conversion upon heating: VT-XRPD and/or DSC. The text has this:
17-AAG is polymorphic and exists in multiple forms, many of which are solvates. We have generated many polymorphs using a variety of solvents and crystallization conditions. The polymorphs were characterized by techniques such as XRPD, DSC, infrared spectroscopy, gravimetric vapor sorption (GVS), ^1H-NMR, polarized light microscopy (PLM), and thermogravimetric analysis (TGA). We grouped the polymorphs according to similarities in XRPD data, with summary descriptions provided below. Polymorphs that are solvated are referred to by group and solvate names, as in “Polymorph A (DMF solvate)” or “the DMF solvate of Polymorph A”. • Group A The N,N-dimethylformamide (DMF), ethyl acetate (EtOAc), and methyl isobutyl ketone (MIBK) solvates of Polymorph A all have XRPD peaks at about 5.6, 7.0, 9.2, 11.2, 16.4, and 17.9 degrees 2θ (the first four being its lowest angle peaks). […] It has characteristic XRPD peaks at about 6.4, 8.3, 9.6, 13.3, 14.9, 15.7, 19.1, and 20.8 degrees 2θ. […] Typically, this polymorph group is prepared using high boiling solvents. After melting, these polymorphs exist in a molten state until decomposition at about 220° C.

Consider `C=CCNC1=C2C[C@@H](C)C[C@H](OC)[C@H](O)[C@@H](C)/C=C(\C)[C@H](OC(N)=O)[C@@H](OC)/C=C\C=C(/C)C(=O)NC(=CC1=O)C2=O` [Amorphous, 17-allylamino-17-demethoxygeldanamycin], for which the Consistency entry in data set [1] (listed as Amorphous (1st run)) and in data set [1] (listed as Amorphous (2nd run)) was “Paste-like” in each case. Besides, the Remarks entry in data set [1] (listed as Amorphous (1st run)) and in data set [1] (listed as Amorphous (2nd run)) was “Does not form stable” in each case.

Regarding `C=CCNC1=C2C[C@@H](C)C[C@H](OC)[C@H](O)[C@@H](C)/C=C(\C)[C@H](OC(N)=O)[C@@H](OC)/C=C\C=C(/C)C(=O)NC(=CC1=O)C2=O` [Polymorph A, 17-allylamino-17-demethoxygeldanamycin], the “polymorph conversion upon heating” value in data set [2] is recorded as “converted to the more stable Polymorph C”.

As to `C=CCNC1=C2C[C@@H](C)C[C@H](OC)[C@H](O)[C@@H](C)/C=C(\C)[C@H](OC(N)=O)[C@@H](OC)/C=C\C=C(/C)C(=O)NC(=CC1=O)C2=O` [Polymorph B, 17-allylamino-17-demethoxygeldanamycin], the Consistency entry in data set [1] (listed as B (1st run)) and in data set [1] (listed as B (2nd run)) was “Highly viscous” in each case. Further, the D50 is on record as 1.8 μm in data set [1] (listed as B (1st run)) and 2.0 μm in data set [1] (listed as B (2nd run)). Besides, in data set [2], the “polymorph conversion upon heating” value is on record as “converted to Polymorph C”.

In the case of `C=CCNC1=C2C[C@@H](C)C[C@H](OC)[C@H](O)[C@@H](C)/C=C(\C)[C@H](OC(N)=O)[C@@H](OC)/C=C\C=C(/C)C(=O)NC(=CC1=O)C2=O` [Polymorph C, 17-allylamino-17-demethoxygeldanamycin], in data set [1], the Consistency entry is given as “Water-like”, the D50 worked out at 0.28 μm and the Remarks entry is on record as “Stable nanoparticle”. Moreover, the “polymorph conversion upon heating” value in data set [2] is listed as “does not convert to any other polymorph upon heating”. Also, the “relative stability among 17-AAG polymorphs” value in data set [2] (moisture/humidity and heat) was “the most stable to moisture and heat; also recorded: the most stable to heat and humidity”.

As for `C=CCNC1=C2C[C@@H](C)C[C@H](OC)[C@H](O)[C@@H](C)/C=C(\C)[C@H](OC(N)=O)[C@@H](OC)/C=C\C=C(/C)C(=O)NC(=CC1=O)C2=O` [Polymorph D (dichloromethane solvate), 17-allylamino-17-demethoxygeldanamycin], the “polymorph conversion upon heating” value in data set [2] was “converts to Polymorph C”.

For `C=CCNC1=C2C[C@@H](C)C[C@H](OC)[C@H](O)[C@@H](C)/C=C(\C)[C@H](OC(N)=O)[C@@H](OC)/C=C\C=C(/C)C(=O)NC(=CC1=O)C2=O` [Polymorph E, 17-allylamino-17-demethoxygeldanamycin], in data set [2] (40° C. and 70% relative humidity (RH)), the “polymorph conversion under humidity” value is reported as “conversion to Polymorph C is observed”.

On to `C=CCNC1=C2C[C@@H](C)C[C@H](OC)[C@H](O)[C@@H](C)/C=C(\C)[C@H](OC(N)=O)[C@@H](OC)/C=C\C=C(/C)C(=O)NC(=CC1=O)C2=O` [Polymorph G, 17-allylamino-17-demethoxygeldanamycin], for which, in data set [1], the Consistency entry is recorded as “Water-like” and the D50 worked out at 0.36 μm. Besides, the “polymorph conversion upon heating” value in data set [2] is recorded as “Heating converts Polymorph G to Polymorph C”.

These data come from patent US7648976B2, “17-allylamino-17-demethoxygeldanamycin polymorphs and formulations” (Bristol-Myers Squibb Company, priority 2005, dated 2010).
